Results reported in paper PMC5518309 (ChemMedChem, 2014).
Numbered stars: 1 amine (or outer) side, 2 acyl side, 3 side chain; on linkers, the order of the positions; unused ones are H or OH. Side chains are listed from the residue outwards. Ends that are not written are not given here. Peptide text beside a SMILES is read from it. * marks the point of attachment. Arachidoyl = CCCCCCCCCCCCCCCCCCCC(=O)*; γGlu = O=C(O)[C@H](CCC(=O)[*:2])N[*:1]; Palmitoyl = CCCCCCCCCCCCCCCC(=O)*; Lauroyl = CCCCCCCCCCCC(=O)*; Propionyl = CCC(=O)*

Key:
Format in all cases: cell-based
[1] = target: T1, hY5R (Homo sapiens, UniProt Q15761); test: Inositol phosphate accumulation assay, hY5R; conditions: for Emax: read-out: hY5R Emax
T1 sequence (Q15761 1-445): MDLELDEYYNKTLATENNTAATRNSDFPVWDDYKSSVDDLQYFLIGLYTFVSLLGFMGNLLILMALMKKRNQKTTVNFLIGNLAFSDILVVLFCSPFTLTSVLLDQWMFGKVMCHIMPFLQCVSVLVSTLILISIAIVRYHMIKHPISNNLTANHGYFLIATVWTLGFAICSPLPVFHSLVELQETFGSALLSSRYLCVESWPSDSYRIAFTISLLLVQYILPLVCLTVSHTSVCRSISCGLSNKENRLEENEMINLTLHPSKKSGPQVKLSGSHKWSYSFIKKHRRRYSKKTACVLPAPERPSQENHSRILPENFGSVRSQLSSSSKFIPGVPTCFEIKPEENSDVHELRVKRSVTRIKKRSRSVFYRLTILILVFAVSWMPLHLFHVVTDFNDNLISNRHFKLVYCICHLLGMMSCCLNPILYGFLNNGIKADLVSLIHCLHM

[2] = target: T2, hY1R (Homo sapiens, UniProt P25929); test: Inositol phosphate accumulation assay, hY1R; conditions: for Emax: read-out: hY1R Emax
T2 sequence (P25929 1-384): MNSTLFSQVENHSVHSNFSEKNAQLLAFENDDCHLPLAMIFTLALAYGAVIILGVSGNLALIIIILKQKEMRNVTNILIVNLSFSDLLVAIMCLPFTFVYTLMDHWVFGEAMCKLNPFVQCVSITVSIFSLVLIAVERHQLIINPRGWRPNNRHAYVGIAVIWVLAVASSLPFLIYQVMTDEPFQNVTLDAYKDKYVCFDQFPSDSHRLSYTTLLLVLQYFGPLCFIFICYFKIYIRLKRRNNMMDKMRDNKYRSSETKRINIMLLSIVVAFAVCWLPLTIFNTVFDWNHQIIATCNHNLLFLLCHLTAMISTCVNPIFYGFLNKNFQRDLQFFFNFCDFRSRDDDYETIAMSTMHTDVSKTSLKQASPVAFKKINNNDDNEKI

[3] = target: hY4R (Homo sapiens, UniProt P50391); test: Inositol phosphate accumulation assay, hY4R; conditions: for Emax: read-out: hY4R Emax
[4] = target: T3, hY2R (Homo sapiens, UniProt P49146); test: Inositol phosphate accumulation assay, hY2R; conditions: for Emax: read-out: hY2R Emax
T3 sequence (P49146 1-381): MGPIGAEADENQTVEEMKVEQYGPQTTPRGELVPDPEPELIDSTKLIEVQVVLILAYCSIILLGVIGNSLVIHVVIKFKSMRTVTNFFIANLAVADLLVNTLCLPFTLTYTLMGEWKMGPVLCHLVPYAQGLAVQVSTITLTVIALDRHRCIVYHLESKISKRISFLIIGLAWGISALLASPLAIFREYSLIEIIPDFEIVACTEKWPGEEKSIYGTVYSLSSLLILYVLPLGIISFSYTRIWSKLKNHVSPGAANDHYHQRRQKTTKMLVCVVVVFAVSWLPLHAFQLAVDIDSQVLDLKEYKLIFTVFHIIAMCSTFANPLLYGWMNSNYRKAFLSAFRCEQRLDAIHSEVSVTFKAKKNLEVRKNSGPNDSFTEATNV

Chain of hY4R (P50391 whole entry): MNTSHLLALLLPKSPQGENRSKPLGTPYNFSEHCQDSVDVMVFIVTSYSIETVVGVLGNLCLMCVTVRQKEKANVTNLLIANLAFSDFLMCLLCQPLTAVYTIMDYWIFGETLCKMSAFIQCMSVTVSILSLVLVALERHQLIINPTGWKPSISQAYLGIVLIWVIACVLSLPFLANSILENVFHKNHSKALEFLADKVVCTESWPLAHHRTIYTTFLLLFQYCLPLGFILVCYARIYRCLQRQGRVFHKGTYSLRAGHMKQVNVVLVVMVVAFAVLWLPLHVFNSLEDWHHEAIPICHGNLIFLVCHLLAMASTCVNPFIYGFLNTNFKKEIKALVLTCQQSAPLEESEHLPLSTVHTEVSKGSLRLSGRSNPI

Molecule | EC50 [1] [nM] | Emax [1] [%] | EC50 [2] [nM] | Emax [2] [%] | EC50 [3] [nM] | Emax [3] [%] | EC50 [4] [nM] | Emax [4] [%]
CCCCCCCCCCCCCCCCCCCC(=O)N[C@@H](CCC(=O)NCCCC[C@H](NC(=O)[C@H](C)NC(=O)[C@H](Cc1ccc(O)cc1)NC(=O)[C@H](CCC(N)=O)NC(=O)[C@H](C)NC(=O)[C@H](CCSC)NC(=O)[C@H](CCC(N)=O)NC(=O)[C@H](CCC(=O)O)NC(=O)[C@@H]1CCCN1C(=O)[C@@H](NC(=O)[C@H](C)NC(=O)[C@H](CC(N)=O)NC(=O)[C@H](CC(=O)O)NC(=O)CNC(=O)[C@@H]1CCCN1C(=O)[C@H](Cc1ccc(O)cc1)NC(=O)[C@@H](NC(=O)[C@@H]1CCCN1C(=O)[C@H](CCC(=O)O)NC(=O)[C@H](CC(C)C)NC(=O)[C@@H]1CCCN1)C(C)C)[C@@H](C)O)C(=O)N[C@@H](CC(=O)O)C(=O)N[C@@H](CC(C)C)C(=O)N[C@@H](CCCNC(=N)N)C(=O)N[C@@H](CCCNC(=N)N)C(=O)N[C@@H](Cc1ccc(O)cc1)C(=O)N[C@H](C(=O)N[C@@H](CC(N)=O)C(=O)N[C@@H](CCSC)C(=O)N[C@@H](CC(C)C)C(=O)N[C@H](C(=O)N[C@@H](CCCNC(=N)N)C(=O)N1CCC[C@H]1C(=O)N[C@@H](CCCNC(=N)N)C(=O)N[C@@H](Cc1ccc(O)cc1)C(N)=O)[C@@H](C)O)[C@@H](C)CC)C(=O)O [compound 13, [K^22(E-Ara)]hPP2–36] (H-PLEPVYPGDNATPEQMAQYAK([γGlu-Arachidoyl])DLRRYINMLTRPRY-NH2) | 0.8 | 75 ± 6 | 11.3 | 101 ± 6 | 2.7 | 93 ± 6 | 0.9 | 90 ± 5
CCCCCCCCCCCCCCCC(=O)N[C@@H](CCC(=O)NCCCC[C@H](NC(=O)[C@H](C)NC(=O)[C@H](Cc1ccc(O)cc1)NC(=O)[C@H](CCC(N)=O)NC(=O)[C@H](C)NC(=O)[C@H](CCSC)NC(=O)[C@H](CCC(N)=O)NC(=O)[C@H](CCC(=O)O)NC(=O)[C@@H]1CCCN1C(=O)[C@@H](NC(=O)[C@H](C)NC(=O)[C@H](CC(N)=O)NC(=O)[C@H](CC(=O)O)NC(=O)CNC(=O)[C@@H]1CCCN1C(=O)[C@H](Cc1ccc(O)cc1)NC(=O)[C@@H](NC(=O)[C@@H]1CCCN1C(=O)[C@H](CCC(=O)O)NC(=O)[C@H](CC(C)C)NC(=O)[C@@H]1CCCN1)C(C)C)[C@@H](C)O)C(=O)N[C@@H](CC(=O)O)C(=O)N[C@@H](CC(C)C)C(=O)N[C@@H](CCCNC(=N)N)C(=O)N[C@@H](CCCNC(=N)N)C(=O)N[C@@H](Cc1ccc(O)cc1)C(=O)N[C@H](C(=O)N[C@@H](CC(N)=O)C(=O)N[C@@H](CCSC)C(=O)N[C@@H](CC(C)C)C(=O)N[C@H](C(=O)N[C@@H](CCCNC(=N)N)C(=O)N1CCC[C@H]1C(=O)N[C@@H](CCCNC(=N)N)C(=O)N[C@@H](Cc1ccc(O)cc1)C(N)=O)[C@@H](C)O)[C@@H](C)CC)C(=O)O [compound 12, [K^22(E-Pam)]hPP2–36] (H-PLEPVYPGDNATPEQMAQYAK([γGlu-Palmitoyl])DLRRYINMLTRPRY-NH2) | 1.9 | 81 ± 6 | 16.5 | 93 ± 6 | 1.5 | 78 ± 4 | 1.7 | 103 ± 12
CCCCCCCCCCCC(=O)N[C@@H](CCC(=O)NCCCC[C@H](NC(=O)[C@H](C)NC(=O)[C@H](Cc1ccc(O)cc1)NC(=O)[C@H](CCC(N)=O)NC(=O)[C@H](C)NC(=O)[C@H](CCSC)NC(=O)[C@H](CCC(N)=O)NC(=O)[C@H](CCC(=O)O)NC(=O)[C@@H]1CCCN1C(=O)[C@@H](NC(=O)[C@H](C)NC(=O)[C@H](CC(N)=O)NC(=O)[C@H](CC(=O)O)NC(=O)CNC(=O)[C@@H]1CCCN1C(=O)[C@H](Cc1ccc(O)cc1)NC(=O)[C@@H](NC(=O)[C@@H]1CCCN1C(=O)[C@H](CCC(=O)O)NC(=O)[C@H](CC(C)C)NC(=O)[C@@H]1CCCN1)C(C)C)[C@@H](C)O)C(=O)N[C@@H](CC(=O)O)C(=O)N[C@@H](CC(C)C)C(=O)N[C@@H](CCCNC(=N)N)C(=O)N[C@@H](CCCNC(=N)N)C(=O)N[C@@H](Cc1ccc(O)cc1)C(=O)N[C@H](C(=O)N[C@@H](CC(N)=O)C(=O)N[C@@H](CCSC)C(=O)N[C@@H](CC(C)C)C(=O)N[C@H](C(=O)N[C@@H](CCCNC(=N)N)C(=O)N1CCC[C@H]1C(=O)N[C@@H](CCCNC(=N)N)C(=O)N[C@@H](Cc1ccc(O)cc1)C(N)=O)[C@@H](C)O)[C@@H](C)CC)C(=O)O [compound 11, [K^22(E-Laur)]hPP2–36] (H-PLEPVYPGDNATPEQMAQYAK([γGlu-Lauroyl])DLRRYINMLTRPRY-NH2) | 14.9 | 87 ± 5 | 204 | 87 ± 5 | 1.5 | 86 ± 5 | 49.6 | 101 ± 7
PLEPVYPGDNATPEQMAQYAKDLRRYINMLTRPRY-NH2 [compound 8, [K^22]hPP2–36] | 6.1 | 89 ± 5 | 51.4 | 101 ± 7 | 1.9 | 91 ± 3 | 67.1 | 107 ± 4
CCCCCCCCCCCCCCCC(=O)N[C@@H](CCC(=O)NCCCC[C@H](NC(=O)[C@H](CC(N)=O)NC(=O)[C@@H](NC(=O)[C@H](Cc1ccc(O)cc1)NC(=O)[C@H](CCCNC(=N)N)NC(=O)[C@H](CCCNC(=N)N)NC(=O)[C@H](CC(C)C)NC(=O)[C@H](CC(=O)O)NC(=O)[C@H](C)NC(=O)[C@H](C)NC(=O)[C@H](Cc1ccc(O)cc1)NC(=O)[C@H](CCC(N)=O)NC(=O)[C@H](C)NC(=O)[C@H](CCSC)NC(=O)[C@H](CCC(N)=O)NC(=O)[C@H](CCC(=O)O)NC(=O)[C@@H]1CCCN1C(=O)[C@@H](NC(=O)[C@H](C)NC(=O)[C@H](CC(N)=O)NC(=O)[C@H](CC(=O)O)NC(=O)CNC(=O)[C@@H]1CCCN1C(=O)[C@H](Cc1ccc(O)cc1)NC(=O)[C@@H](NC(=O)[C@@H]1CCCN1C(=O)[C@H](CCC(=O)O)NC(=O)[C@H](CC(C)C)NC(=O)[C@@H]1CCCN1)C(C)C)[C@@H](C)O)[C@@H](C)CC)C(=O)N[C@@H](CC(C)C)C(=O)N[C@H](C(=O)N[C@@H](CCCNC(=N)N)C(=O)N1CCC[C@H]1C(=O)N[C@@H](CCCNC(=N)N)C(=O)N[C@@H](Cc1ccc(O)cc1)C(N)=O)[C@@H](C)O)C(=O)O [18a, [K^30(E-Pam)]hPP2–36] (H-PLEPVYPGDNATPEQMAQYAADLRRYINK([γGlu-Palmitoyl])LTRPRY-NH2) | 1.6 | 75 ± 5 | 76.2 | 85 ± 3 | 1.2 | 78 ± 4 | 21.1 | 92 ± 3
CCC(=O)N[C@@H](CCC(=O)NCCCC[C@H](NC(=O)[C@H](C)NC(=O)[C@H](Cc1ccc(O)cc1)NC(=O)[C@H](CCC(N)=O)NC(=O)[C@H](C)NC(=O)[C@H](CCSC)NC(=O)[C@H](CCC(N)=O)NC(=O)[C@H](CCC(=O)O)NC(=O)[C@@H]1CCCN1C(=O)[C@@H](NC(=O)[C@H](C)NC(=O)[C@H](CC(N)=O)NC(=O)[C@H](CC(=O)O)NC(=O)CNC(=O)[C@@H]1CCCN1C(=O)[C@H](Cc1ccc(O)cc1)NC(=O)[C@@H](NC(=O)[C@@H]1CCCN1C(=O)[C@H](CCC(=O)O)NC(=O)[C@H](CC(C)C)NC(=O)[C@@H]1CCCN1)C(C)C)[C@@H](C)O)C(=O)N[C@@H](CC(=O)O)C(=O)N[C@@H](CC(C)C)C(=O)N[C@@H](CCCNC(=N)N)C(=O)N[C@@H](CCCNC(=N)N)C(=O)N[C@@H](Cc1ccc(O)cc1)C(=O)N[C@H](C(=O)N[C@@H](CC(N)=O)C(=O)N[C@@H](CCSC)C(=O)N[C@@H](CC(C)C)C(=O)N[C@H](C(=O)N[C@@H](CCCNC(=N)N)C(=O)N1CCC[C@H]1C(=O)N[C@@H](CCCNC(=N)N)C(=O)N[C@@H](Cc1ccc(O)cc1)C(N)=O)[C@@H](C)O)[C@@H](C)CC)C(=O)O [compound 9, [K^22(E-Prop)]hPP2–36] (H-PLEPVYPGDNATPEQMAQYAK([γGlu-Propionyl])DLRRYINMLTRPRY-NH2) | 21.9 | 83 ± 2 | > 1000 | 92 ± 4 | 1.1 | 96 ± 6 | > 1000 | 88 ± 6
